The source of these data is ChEMBL document CHEMBL2007661, “Compounds: GSK PKIS; Assays: UNC Frye lab” (2012).

Several values for one entry are separate records, joined by “and”; a condition that tells them apart may be missing. Equal values may be shown once.

Common to all, as to details: at 1 µM
Experiment [1] addresses T1, Inhibitor of nuclear factor kappa-B kinase subunit beta (Homo sapiens) (UniProt O14920).
T1 sequence (whole entry): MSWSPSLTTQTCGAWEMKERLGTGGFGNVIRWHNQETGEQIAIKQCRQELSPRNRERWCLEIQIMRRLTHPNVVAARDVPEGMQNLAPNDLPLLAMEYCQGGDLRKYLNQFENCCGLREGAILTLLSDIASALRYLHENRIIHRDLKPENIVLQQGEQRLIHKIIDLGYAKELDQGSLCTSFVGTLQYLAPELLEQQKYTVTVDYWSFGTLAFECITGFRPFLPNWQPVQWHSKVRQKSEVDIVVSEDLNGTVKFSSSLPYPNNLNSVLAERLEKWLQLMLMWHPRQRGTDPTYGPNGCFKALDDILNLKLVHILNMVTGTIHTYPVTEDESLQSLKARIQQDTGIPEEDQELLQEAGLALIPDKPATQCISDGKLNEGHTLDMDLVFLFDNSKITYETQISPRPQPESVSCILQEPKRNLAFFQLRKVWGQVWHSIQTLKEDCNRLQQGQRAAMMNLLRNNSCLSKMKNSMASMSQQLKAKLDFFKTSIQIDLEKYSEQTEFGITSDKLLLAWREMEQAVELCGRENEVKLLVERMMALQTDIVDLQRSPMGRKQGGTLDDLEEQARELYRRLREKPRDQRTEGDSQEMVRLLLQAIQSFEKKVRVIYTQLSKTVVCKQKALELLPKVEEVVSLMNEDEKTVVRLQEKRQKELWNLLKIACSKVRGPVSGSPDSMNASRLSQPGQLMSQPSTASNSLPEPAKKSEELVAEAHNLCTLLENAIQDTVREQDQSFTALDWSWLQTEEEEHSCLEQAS

For experiment [2], the target named is T2, Inhibitor of nuclear factor kappa-B kinase subunit epsilon (Homo sapiens) (UniProt Q14164).
T2 sequence (whole entry): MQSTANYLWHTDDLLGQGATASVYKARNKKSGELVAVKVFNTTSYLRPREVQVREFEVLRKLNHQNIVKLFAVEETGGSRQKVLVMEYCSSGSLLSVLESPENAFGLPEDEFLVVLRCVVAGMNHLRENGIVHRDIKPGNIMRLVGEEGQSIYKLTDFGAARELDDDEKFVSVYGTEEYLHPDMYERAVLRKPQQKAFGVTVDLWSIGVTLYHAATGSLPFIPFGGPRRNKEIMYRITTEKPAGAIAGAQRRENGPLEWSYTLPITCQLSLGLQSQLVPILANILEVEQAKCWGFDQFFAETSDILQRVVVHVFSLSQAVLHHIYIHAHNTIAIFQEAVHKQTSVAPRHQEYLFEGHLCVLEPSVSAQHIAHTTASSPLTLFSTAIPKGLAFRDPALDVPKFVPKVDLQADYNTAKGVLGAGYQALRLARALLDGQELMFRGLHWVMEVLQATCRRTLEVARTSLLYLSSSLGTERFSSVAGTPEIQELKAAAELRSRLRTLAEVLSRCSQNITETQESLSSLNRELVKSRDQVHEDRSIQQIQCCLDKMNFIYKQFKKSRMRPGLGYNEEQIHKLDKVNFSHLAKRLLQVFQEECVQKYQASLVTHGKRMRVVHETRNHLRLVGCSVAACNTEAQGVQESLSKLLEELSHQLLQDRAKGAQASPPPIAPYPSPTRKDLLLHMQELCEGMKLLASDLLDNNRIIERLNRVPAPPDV

Experiment [3] addresses T3, Inhibitor of nuclear factor kappa-B kinase subunit alpha (Homo sapiens) (UniProt O15111).
T3 sequence (whole entry): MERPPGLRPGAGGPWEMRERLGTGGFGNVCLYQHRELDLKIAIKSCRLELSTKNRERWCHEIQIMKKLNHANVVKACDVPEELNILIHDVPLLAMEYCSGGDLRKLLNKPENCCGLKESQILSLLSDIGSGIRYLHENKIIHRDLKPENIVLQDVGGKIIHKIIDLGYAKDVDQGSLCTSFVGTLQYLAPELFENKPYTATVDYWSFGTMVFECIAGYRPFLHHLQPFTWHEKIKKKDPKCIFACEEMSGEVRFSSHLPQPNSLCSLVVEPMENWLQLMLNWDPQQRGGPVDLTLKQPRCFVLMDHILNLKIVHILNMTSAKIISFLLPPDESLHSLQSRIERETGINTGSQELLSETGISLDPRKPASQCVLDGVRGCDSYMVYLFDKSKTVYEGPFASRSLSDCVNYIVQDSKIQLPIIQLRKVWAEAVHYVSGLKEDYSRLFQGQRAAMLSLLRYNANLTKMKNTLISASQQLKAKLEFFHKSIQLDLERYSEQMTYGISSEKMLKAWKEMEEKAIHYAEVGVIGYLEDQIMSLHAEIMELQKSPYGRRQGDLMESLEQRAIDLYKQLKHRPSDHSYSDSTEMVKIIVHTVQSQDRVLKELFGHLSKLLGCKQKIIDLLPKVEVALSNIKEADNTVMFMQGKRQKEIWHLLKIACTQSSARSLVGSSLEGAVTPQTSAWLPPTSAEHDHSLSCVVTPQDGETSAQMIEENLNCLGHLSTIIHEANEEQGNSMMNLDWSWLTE

The target of experiment [4] is T4, Serine/threonine-protein kinase TBK1 (Homo sapiens) (UniProt Q9UHD2).
T4 sequence (whole entry): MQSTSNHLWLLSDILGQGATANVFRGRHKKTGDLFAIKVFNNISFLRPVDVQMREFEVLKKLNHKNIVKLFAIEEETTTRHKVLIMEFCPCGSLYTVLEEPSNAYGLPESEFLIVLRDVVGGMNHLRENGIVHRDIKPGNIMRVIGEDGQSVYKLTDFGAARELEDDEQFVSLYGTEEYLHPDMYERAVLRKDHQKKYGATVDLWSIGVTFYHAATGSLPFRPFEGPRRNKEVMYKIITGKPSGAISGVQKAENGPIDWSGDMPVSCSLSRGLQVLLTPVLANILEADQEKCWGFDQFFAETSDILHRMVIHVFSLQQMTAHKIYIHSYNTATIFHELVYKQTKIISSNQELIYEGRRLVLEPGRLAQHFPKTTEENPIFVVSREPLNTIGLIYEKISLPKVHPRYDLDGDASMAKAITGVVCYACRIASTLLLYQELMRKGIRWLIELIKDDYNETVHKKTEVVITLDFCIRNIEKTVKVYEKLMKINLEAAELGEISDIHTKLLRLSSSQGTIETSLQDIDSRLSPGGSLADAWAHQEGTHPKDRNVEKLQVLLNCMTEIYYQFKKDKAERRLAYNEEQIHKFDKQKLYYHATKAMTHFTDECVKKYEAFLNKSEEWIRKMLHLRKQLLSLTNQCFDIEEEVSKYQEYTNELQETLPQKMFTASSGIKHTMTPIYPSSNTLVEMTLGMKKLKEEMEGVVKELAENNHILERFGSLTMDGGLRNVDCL

Consider `CCn1c(-c2nonc2N)nc2ccccc21`, for which the inhibition (commonly the relative decrease from the control value, in per cent) in experiment [1] is -5% and -4%; in experiment [2], -1% and -2%; in experiment [3], 24%; in experiment [4], -2% and -3%.

Regarding `CN1CCN(Cc2ccc(-c3cc4ncnc(Nc5ccc(OCc6cccc(F)c6)c(Cl)c5)c4s3)o2)CC1`, the inhibition in experiment [1] was -3%; in experiment [2] it was 6% and 5%; in experiment [3], 0% and -4%; in experiment [4] it was 7% and 3%.

`CC(C)=Cc1cccc2c1/C(=N/Nc1ccc(S(N)(=O)=O)cc1)C(=O)N2`: the inhibition in experiment [1] is -1% and 0%; in experiment [2], 33%; in experiment [3], -2% and 1%; in experiment [4], 46% and 45%.

On to `COc1cc2c(cc1Nc1nc(Nc3ccsc3C(N)=O)c3cc[nH]c3n1)N(C(=O)CN(C)C)CCC2`, for which the inhibition in experiment [1] is -6% and -4%; in experiment [2], 7% and 6%; in experiment [3] it was 3% and 4%; in experiment [4], 23% and 19%.

Take `CCCN1CCC=C(c2ccc(Nc3nc(Nc4ccccc4C(N)=O)c4cc[nH]c4n3)c(C)c2)C1`: the inhibition in experiment [1] was -3% and -1%; in experiment [2], 13% and 12%; in experiment [3] it was 4% and 2%; in experiment [4] it was 28% and 24%.

For the compound `NS(=O)(=O)c1ccc(Nc2cc(-c3cccc(O)c3)n[nH]2)cc1`, the inhibition is -3% and -2% in experiment [1]; -2% and -3% in experiment [2]; -1% and 0% in experiment [3]; -4% and -2% in experiment [4].

As to `CCN1CCC(CC(=O)Nc2n[nH]c3nnc(-c4cccc(F)c4F)cc23)CC1`, the inhibition is -2% and -1% in experiment [1]; -1% and -3% in experiment [2]; 1% and 6% in experiment [3]; 0% in experiment [4].

As to `Fc1ccc(-c2ncn(C3CCNCC3)c2-c2ccnc(Oc3ccc(Oc4ccccc4)cc3)n2)cc1`, the inhibition is 0% in experiment [1]; 1% in experiment [2]; -5% and -4% in experiment [3]; 3% and 2% in experiment [4].

With `CS(=O)(=O)CCN(CC#N)Cc1ccc(-c2ccc3ncnc(Nc4ccc(OCc5cccc(F)c5)c(Cl)c4)c3c2)o1`, the inhibition is -2% and -1% in experiment [1]; 1% and 4% in experiment [2]; 1% in experiment [3]; 11% and 12% in experiment [4].

For `O=C1Nc2ccccc2/C1=C/Nc1ccc2[nH]c(=O)[nH]c2c1`, the inhibition in experiment [1] is -5% and -3%; in experiment [2] it was 22% and 20%; in experiment [3] it was 1%; in experiment [4] it was 30% and 27%.

As to `Cc1ccc(-c2cc3c(NC(=O)C4CC4)ncnc3o2)cc1`, the inhibition in experiment [1] is -2% and -4%; in experiment [2] it was -4% and -3%; in experiment [3] it was 0% and -1%; in experiment [4], -2% and -3%.

On to `NC(=O)c1ccc(Oc2nccc(-c3c(-c4ccc(F)cc4)ncn3C3CCNCC3)n2)cc1`, for which the inhibition in experiment [1] was 0%; in experiment [2], 3%; in experiment [3], -5% and -4%; in experiment [4] it was 5% and 4%.

In the case of `COc1ccc(Nc2ncc(-c3ccccc3)o2)cc1OC`, the inhibition is -2% and -6% in experiment [1]; 5% and 4% in experiment [2]; 1% in experiment [3]; 8% and 20% in experiment [4].

For `Cc1c2ccc(N(C)c3ccnc(Nc4cccc(S(N)(=O)=O)c4)n3)cc2nn1C`, the inhibition was 0% and -1% in experiment [1]; -1% and 2% in experiment [2]; 2% in experiment [3]; 1% and 2% in experiment [4].

In the case of `CCc1cccc(NC(=O)Nc2ccc(Oc3ccc4nc(NC(=O)OC)[nH]c4c3)cc2)c1`, the inhibition in experiment [1] is 0% and 6%; in experiment [2] it was -3% and -1%; in experiment [3], -10%; in experiment [4], -3% and -1%.

As to `CN1CCC(n2cnc(-c3ccc(F)cc3)c2-c2ccnc(N)n2)CC1`, the inhibition in experiment [1] is -3%; in experiment [2], 4%; in experiment [3] it was 2%; in experiment [4] it was 0% and 2%.

In the case of `NC(=O)c1sc(-n2cnc3cc(C(F)(F)F)ccc32)cc1OCc1ccccc1Br`, the inhibition was -4% and -3% in experiment [1]; 3% and 2% in experiment [2]; 1% and 3% in experiment [3]; 3% and 6% in experiment [4].

On to `Nc1ncnc2occ(-c3ccc(NC(=O)Nc4cc(C(F)(F)F)cc(C(F)(F)F)c4)cc3)c12`, for which the inhibition in experiment [1] was -4%; in experiment [2] it was 7% and 8%; in experiment [3], 4% and 1%; in experiment [4], -3% and -6%.

As to `CN(C)CCCn1c(-c2nonc2N)nc2cnccc21`, the inhibition in experiment [1] is -5% and -4%; in experiment [2] it was 2%; in experiment [3], 8% and 10%; in experiment [4] it was 1% and 0%.

For the compound `CC(C)c1ccc(-c2cc(-c3c[nH]nc3-c3ccccn3)ccn2)cc1`, the inhibition is -3% and -1% in experiment [1]; -5% in experiment [2]; 1% and 0% in experiment [3]; -5% and -7% in experiment [4].

With `CCn1c(-c2nonc2N)nc2c(C#CC(C)(C)O)ncc(OCC3CCNCC3)c21`, the inhibition in experiment [1] was -3%; in experiment [2] it was 96%; in experiment [3], 9% and 3%; in experiment [4], 55% and 59%.

Take `COC(=O)Nc1nc2cc(Oc3ccc(NC(=O)Nc4ccccc4)cc3)ccc2[nH]1`: the inhibition in experiment [1] was 1% and -1%; in experiment [2], 2% and 1%; in experiment [3], -1% and -2%; in experiment [4], 8%.

Take `COc1cccc(-c2c[nH]c3c(N/N=C/c4ccncc4)ncnc23)c1`: the inhibition in experiment [1] is -3% and -6%; in experiment [2] it was 35% and 33%; in experiment [3] it was 2%; in experiment [4] it was 74% and 76%.
